Data taken from patent US20210321612A1, “USE OF QUERCETIN IN PLANT AGING PROMOTER” (TOBACCO RESEARCH INSTITUTE OF CHINESE ACADEMY OF …, priority 2019, published 2021).

Experiments:
Format in all cases: in vivo
[1] = test system: living plants of Nicotiana benthamiana; test: Spraying the quercetin plant senescence accelerator onto attached leaves of Nicotiana benthamiana; settings: attached leaves sprayed at 1, 10 and 20 μmol/L; FIG. 4B
From the text: Experimental test 4: Effects of spraying the quercetin plant senescence accelerator onto attached leaves of Nicotiana benthamiana Living plants of Nicotiana benthamiana were sprayed with the quercetin plant senescence accelerator finished product in Embodiment 3, and the accelerating effect of the accelerator on the senescence of plant leaves was observed. The specific results were shown in FIGS. 4A-4C, and the experimental groups and their results were described below. Experimental group: living plants of Nicotiana benthamiana were sprayed with the quercetin plant senescence accelerators having concentrations of 1 μmol/L, 10 μmol/L and 20 μmol/L, respectively. Control group: living plants of Nicotiana benthamiana were sprayed with the 1/2 MS solution of 2-(N-morpholino)ethanesulfonic acid in which the concentration of 2-(N-morpholino)ethanesulfonic acid was 2.9 mmol/L.

[2] = test system: living plants of Arabidopsis thaliana; test: Spraying the quercetin plant senescence accelerator onto living plants of Arabidopsis thaliana; settings: attached leaves sprayed at 10 and 20 μmol/L; FIG. 3B
From the text: Experimental test 3: Effects of spraying the quercetin plant senescence accelerator onto living plants of Arabidopsis thaliana Living plants of Arabidopsis thaliana were sprayed with the quercetin plant senescence accelerator finished products prepared by the preparation method provided in one of Embodiments 1-3 of the present application, and the accelerating effect of the accelerator on the senescence of plant leaves was observed. The specific results were shown in FIGS. 3A-3C, and the experimental groups and their results were described below. Experimental group: living plants of Arabidopsis thaliana were sprayed with the quercetin plant senescence accelerators with concentrations of 10 μmol/L and 20 μmol/L in Embodiment 2, respectively. Control group: living plants Arabidopsis thaliana were sprayed with the 1/2 MS solution of 2-(N-morpholino)ethanesulfonic acid in which the concentration of 2-(N-morpholino)ethanesulfonic acid was 3 mmol/L.

Honghuadajinyuan tobacco = test: Spraying the quercetin plant senescence accelerator onto common tobacco in fields; settings: 10 μmol/L; attached leaves of tobacco; FIG. 5B
From the text: Experimental test 5: Effects of spraying the quercetin plant senescence accelerator onto common tobacco in fields It could be found from the experimental test 4 that 10 μmol/L was the optimal concentration of the quercetin plant senescence accelerator to accelerate mature and yellowing of tobacco leaves. Further, Honghuadajinyuan tobacco was sprayed with the quercetin plant senescence accelerator finished product, and the accelerating effect of the accelerator on the senescence of plant leaves was observed. The specific results were shown in FIGS. 5A-5D, and the experimental groups and their results were described below. The quercetin plant senescence accelerator having a concentration of 0 (the control group) and the quercetin plant senescence accelerator having a concentration of 10 μmol/L were sprayed onto living plants of common tobacco.

Measured: content of chlorophyll in leaves

O=c1c(O)c(-c2ccc(O)c(O)c2)oc2cc(O)cc(O)c12 [quercetin]
significantly reduced: [1] | [2] | Honghuadajinyuan tobacco
